{
  "source": "patent US20200038413A1",
  "about": "“METHODS OF TREATING PARKINSON'S DISEASE USING AMINOSTEROL COMPOSITIONS” (Enterin, Inc., priority 2018, published 2020)",
  "key": {"[1]": {"tested_on": "patients with PD and constipation", "experiment": "Phase 2 trial Stage 2: daily oral dosing, bowel function / stool related indices", "type": "in vivo, human", "procedure": "Following successful screening, all subjects underwent a 14-day run-in period where the degree of constipation was assessed through a validated daily log (Zinsmeister et al. 2013) establishing baseline CSBMs/week. Subjects with an average of <3 CSBMs/week proceeded to dosing.\nIn Stage 2, 34 patients were evaluated.\nThe primary efficacy outcome variable was whether or not a subject was a “success” or “failure”. This is an endpoint based on subject diary entries for the “fixed dose” period prior to the endpoint assessment defined as average complete stool frequency increase by 1 or more over baseline, or 3 or more complete spontaneous stools/week. The subject was deemed a “success” if s/he met one or more of the criteria listed above, otherwise the subject was deemed a “failure”. The primary analysis was based on all subjects with a baseline assessment and an assessment at the end of the “fixed-dose” period and was a comparison of the proportion of successes with 0.10 (the null hypothesis corresponding to no treatment effect)."}, "[2]": {"tested_on": "patients with PD and constipation", "experiment": "Phase 2 trial: safety and adverse event profile", "type": "in vivo, human", "protocol": "Each dose period was staggered, so that subjects 1-2 were administered a single dose of the drug at the lowest dose of 25 mg. Once 24 hours have elapsed, and provided there are no safety concerns, the patient was sent home and brought back on day 4-8 for the next dose. During the days the subjects are home, they completed the daily diaries and e-mailed them to the study coordinators. Subjects 3-10 were dosed after the first 2 subjects have been observed for 72 hours, i.e. on Day 4. Subjects 1-2 were also brought back on Day 4-8 and administered a single dose of 50 mg. Once another 24 hours have elapsed and provided there are no safety concerns, the patients were all sent home and instructed to return on Day 7 for the next dosing level. This single dosing regimen was continued until each subject was administered a single dose of 200 mg or has reached a dose limiting toxicity (DLT). DLT was the dose which induces repeated vomiting, diarrhea, abdominal pain or symptomatic postural hypotension within 24 hours of dosing.\nAdverse events were coded using the current version of MedDRA. Severity of AEs were assessed by investigators according to CTCAE (v4.03): Grade 1 is labeled as Mild, Grade 2 as Moderate, and Grade 3 and above as Severe. […] The number (percentage) of subjects who experienced an AE during escalation and fixed dosing periods were summarized by dose level and overall for each stage. The denominator for calculating the percentages were based on the number of subjects ever exposed to each dose and overall."}, "[3]": {"experiment": "Phase 2 trial: pharmacokinetics of orally administered squalamine (ENT-01)", "type": "in vivo", "settings": "human, based on PK of intravenously administered squalamine in prior clinical studies", "procedure": "Pharmakokinetics: PK data were collected on the 10 patients enrolled in Stage 1 and 10 patients enrolled in Stage 2 to determine the extent of systemic absorption. In Stage 1, PK data were obtained at each visit, pre-medication, at 1, 2, 4, 8 and 24 hours (Table 10). In Stage 2, PK was measured on days 1 and 6 of the randomization period pre-medication, at 1, 2, 4 and 8 hours (Table 11).\nThe mean Cmax, Tmax and T1/2 and AUC of the squalamine ion following squalamine (ENT-01) oral dosing for Stage 1 patients. The PK analyses are only approximate, as the lower limit of the validated concentration range was 10 ng/ml; most of the measured concentrations fell below that value. The mean Cmax, Tmax and T1/2 and AUC of the squalamine ion following squalamine (ENT-01) oral dosing for Stage 2 patients. The PK analyses are only approximate, as the lower limit of the validated concentration range was 0.5 ng/ml."}, "[4]": {"tested_on": "patients with PD and constipation", "experiment": "Phase 2 trial Stage 2: CNS symptoms (UPDRS, MMSE, PDHQ, BDI-II, sleep diary)", "type": "in vivo, human", "from_the_text": "Exploratory end-points, in addition to constipation, included for example, (i) depression assessed using the Beck Depression Inventory (BDI-II) (Steer et al. 2000) and Unified Parkinson's Disease Rating Scale (UPDRS); (ii) cognition assessed using the Mini Mental State Examination (MMSE) (Palsteia et al. 2018), Unified Parkinson's Disease Rating Scale (UPDRS), and Trail Making Test (TMT); (iii) sleep and REM-behavior disorder (RBD) using a daily sleep diary, I-Button Temperature Assessment, a REM sleep behavior disorder (RBD) questionnaire (RBDQ) (Stiasny-Kolster et al. 2007), and the UPDRS; (iv) hallucinations assessed using the PD hallucinations questionnaire (PDHQ) (Papapetropoulos et al. 2008), the UPDRS, and direct questioning; (v) fatigue using the Parkinson's Disease Fatigue Scale (PFS-16) and the UPDRS; (vi) motor functions using the UPDRS; and (vii) non-motor functions using the UPDRS.\nAssessments were made at baseline and at the end of the fixed dose and washout periods. Circadian system status was evaluated by continuously monitoring wrist skin temperature (Thermochron iButton DS1921H; Maxim, Dallas) following published procedures (Sarabia et al. 2008).\nCNS Symptoms in Stage 2: An exploratory analysis was done with respect to the sleep data, the body temperature data, mood, fatigue, hallucinations, cognition and other motor and non-motor symptoms of PD. Continuous measurements within a subject were compared with a paired t-test and continuous measurements between subject groups were compared with a two-group t-test. Categorical data were compared with a chi-squared test or a Fisher's exact test if the expected cell counts are too small for a chi-squared test."}, "[5]": {"experiment": "Preclinical oral studies in rats", "type": "in vivo"}, "Solubility in water": {"experiment": "Solubility in water", "type": "physicochemical", "settings": "pH<3.5 (the pH of gastric fluid)"}},
  "note": "Values joined by “and” are separate entries in the source; they are usually repeats but may differ in a detail not shown here. Equal entries are not always repeated.",
  "data": [
    {"smiles": "CC(C)[C@@H](CC[C@@H](C)[C@H]1CC[C@H]2[C@@H]3[C@H](O)C[C@H]4C[C@@H](NCCCNCCCCN)CC[C@]4(C)[C@H]3CC[C@]12C)OS(=O)(=O)O", "note": "(single isomer, unassigned) [squalamine (ENT-01), squalamine]", "values": [
      {"measurement": "CSBM", "setting": "[1]; Stage 2, wash-out, mean (SD), baseline 1.2 (0.90)", "result": "1.8 (1.19)"},
      {"measurement": "SBM", "setting": "[1]; Stage 2, wash-out, mean (SD), baseline 2.6 (1.45)", "result": "3.2 (1.80)"},
      {"measurement": "response rate (CSBM within 24 hours on at least 2 of 3 days)", "setting": "[1]; Stage 2 daily dosing, 75 mg", "result": 26, "unit": "%"},
      {"measurement": "decrease in use of rescue medication", "setting": "[1]; fixed dose vs baseline", "result": 83, "unit": "%"},
      {"measurement": "improvement in SBM", "setting": "[1]; fixed dose vs baseline", "result": 73, "unit": "%"},
      {"measurement": "improvement in consistency (Bristol stool scale)", "setting": "[1]; fixed dose vs baseline", "result": 52, "unit": "%"},
      {"measurement": "improvement in ease of passage", "setting": "[1]; fixed dose vs baseline", "result": 16, "unit": "%"},
      {"measurement": "Diarrhea, patients", "setting": "[2]; Stage 1, 4/10", "result": 40, "unit": "%"},
      {"measurement": "nausea, patients", "setting": "[2]; Stage 1, 4/10", "result": 40, "unit": "%"},
      {"measurement": "Diarrhea, patients", "setting": "[2]; Stage 2, 15/34", "result": 44, "unit": "%"},
      {"measurement": "nausea, patients", "setting": "[2]; Stage 2, 18/34", "result": 52.9, "unit": "%"},
      {"measurement": "worsening of hemorrhoids, patients", "setting": "[2]; both stages, 1/44", "result": 2.2, "unit": "%"},
      {"measurement": "worsening of acid reflux, patients", "setting": "[2]; both stages, 2/44", "result": 4.5, "unit": "%"},
      {"measurement": "flatulence, patients", "setting": "[2]; both stages, 3/44", "result": 6.8, "unit": "%"},
      {"measurement": "vomiting, patients", "setting": "[2]; both stages, 3/44", "result": 6.8, "unit": "%"},
      {"measurement": "dizziness, patients", "setting": "[2]; both stages, 8/44", "result": 18, "unit": "%"},
      {"measurement": "abdominal pain, patients", "setting": "[2]; both stages, 11/44", "result": 32, "unit": "%"},
      {"measurement": "oral bio-availability (estimated)", "setting": "[3]", "result": "less than 0.3%"},
      {"measurement": "increase in total sleep time", "setting": "[4]; 250 mg vs baseline", "result": 18, "unit": "%"},
      {"measurement": "hallucinations and delusions improved or disappeared", "setting": "[4]; during treatment, patients with hallucinations (5) or delusions (1) at baseline", "result": "5 of 6"},
      {"measurement": "improvement in frequency of arm or leg thrashing", "setting": "[4]; maximal dose vs baseline", "result": 100, "unit": "%"},
      {"measurement": "improvement in UPDRS Part 1", "setting": "[4]; wash-out vs baseline", "result": "~20% and 18%"},
      {"measurement": "tolerability", "setting": "[5]; oral", "result": "well tolerated"},
      {"measurement": "oral bioavailability", "setting": "[5]; preclinical studies", "result": "about 0.1%"},
      {"measurement": "solubility in water", "setting": "Solubility in water", "result": "readily dissolves"}
    ]}
  ]
}
